# Reference: the supplement of paper PMC6965134
# ± gives the standard deviation of the averaged measurements.
# Experiment: TIMS collisional cross section (CCS, N2) of the lipid ion; higher = larger ion cross section
# Details: ionization mode: negative, one isomer drawn
# Protocol: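 Lipid extracts of human plasma (NIST SRM 1950), mouse liver or HeLa cells were separated by nanoflow C18 LC (30 min gradient) and analysed by TIMS-PASEF on a timsTOF Pro. Ion mobility was calibrated with the Agilent tuning mix (negative mode ions) and converted to collisional cross sections (Mason–Schamp, N2).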
# 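Further: lipids from MTBE extraction, five replicate injections per sample, 100 ms TIMS ramp spanning 0.6–1.95 Vs/cm², lipid identity assigned from PASEF MS/MS spectra.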
smiles,measurement,setting,value
CC/C=C\C/C=C\C/C=C\C/C=C\C/C=C\CCCC(=O)OC[C@H](COP(=O)(O)OCCN)OC(=O)CCCCCCC/C=C\CCCCCCCC [PE 20:5_18:1],TIMS collisional cross section,"sample type: Human plasma, ion (formula + adduct): [C43H74NO8P-H] 1-",274.5 Å²
same,TIMS collisional cross section,"sample type: Mouse Liver, ion (formula + adduct): [C43H74NO8P-H] 1-",273.9 Å²
CCCCCC/C=C\CCCCCCCC(=O)O[C@H](CO/C=C\CCCCCCCCCCCCCC)COP(=O)([O-])OCC[N+](C)(C)C [PC P- 16:0@_16:1],TIMS collisional cross section,"sample type: Mouse Liver, ion (formula + adduct): [C40H78NO7P+OAcO] 1-",283.6 Å²
CCCCCC/C=C\CCCCCCCC(=O)O[C@H](COC(=O)CCCCCCCCCCCCC)COP(=O)([O-])OCC[N+](C)(C)C [PC 14:0_16:1],TIMS collisional cross section,"sample type: Human plasma, ion (formula + adduct): [C38H74NO8P+HCOO] 1-",280.9 Å²
CCCCCC/C=C\CCCCCCCC(=O)O[C@H](COC(=O)CCCCCCCCCCC)COP(=O)([O-])OCC[N+](C)(C)C [PC 12:0@_16:1],TIMS collisional cross section,"sample type: Human plasma, ion (formula + adduct): [C36H70NO8P+HCOO] 1-",275.3 Å²
CC/C=C\C/C=C\C/C=C\CCCCCCCC(=O)O[C@H](COC(=O)CCCCCCCCCCCCC)COP(=O)([O-])OCC[N+](C)(C)C [PC 14:0@_18:3],TIMS collisional cross section,"sample type: Human plasma, ion (formula + adduct): [C40H74NO8P+HCOO] 1-",284.9 Å²
CCCCC/C=C\C/C=C\C/C=C\CCCCCCC(=O)O[C@H](COC(=O)CCCC/C=C\C/C=C\C/C=C\CCCCC)COP(=O)([O-])OCC[N+](C)(C)C [PC 18:3_20:3],TIMS collisional cross section,"sample type: Human plasma, ion (formula + adduct): [C46H80NO8P+AcO] 1-",300.6 Å²
CCCCCCCC/C=C\CCCCCCCCCC(=O)O[C@H](COC(=O)CCCCCCCCCCCCCCC)COP(=O)(O)OCCN [PE 16:0_20:1],TIMS collisional cross section,"sample type: Mouse Liver, ion (formula + adduct): [C41H80NO8P-H] 1-",275.2 Å²
CCCCC/C=C\C[C@H](O)/C=C/C=C\C/C=C\CCCC(=O)O[C@H](COC(=O)CCCCCCCCCCCCCCC)COP(=O)([O-])OCC[N+](C)(C)C [Oxidized PC 16:0_20:4],TIMS collisional cross section,"sample type: Human plasma, ion (formula + adduct): [C44H80NO9P+HCOO] 1-",296.77 ± 1.3 Å²
same,TIMS collisional cross section,"sample type: Mouse Liver, ion (formula + adduct): [C44H80NO9P+HCOO] 1-",295.67 ± 1.9 Å²
CCCCC/C=C\C/C=C\C/C=C\C/C=C\CCCC(=O)OC[C@@H](O)COP(=O)(O)OC1C(O)C(O)C(O)[C@@H](O)C1O (stereo partly drawn) [LPI 20:4_0:0],TIMS collisional cross section,"sample type: Human plasma, ion (formula + adduct): [C29H49O12P-H] 1-",239.9 Å²
same,TIMS collisional cross section,"sample type: Mouse Liver, ion (formula + adduct): [C29H49O12P-H] 1-",241 Å²
CC/C=C\C/C=C\C/C=C\C/C=C\C/C=C\CCCC(=O)O[C@H](COC(=O)CCCCCCCCCCCCCCCCC)COP(=O)([O-])OCC[N+](C)(C)C [PC 18:0_20:5],TIMS collisional cross section,"sample type: Human plasma, ion (formula + adduct): [C46H82NO8P+HCOO] 1-",299.5 Å²
CC/C=C\C/C=C\C/C=C\C/C=C\C/C=C\CCCC(=O)O[C@H](CO/C=C\CCCCCCCCCCCCCCCC)COP(=O)(O)OCCN [PE P- 18:0@_20:5],TIMS collisional cross section,"sample type: Mouse Liver, ion (formula + adduct): [C43H76NO7P-H] 1-",274.5 Å²
CC/C=C\C/C=C\C/C=C\C/C=C\C/C=C\C/C=C\CCC(=O)O[C@H](COC(=O)CCCCCCCCC/C=C\C/C=C\CCCCC)COP(=O)(O)OC[C@H](N)C(=O)O [PS 20:2@_22:6],TIMS collisional cross section,"sample type: Mouse Liver, ion (formula + adduct): [C48H78NO10P-H] 1-",296.6 Å²
CCCCC/C=C\C[C@H](O)/C=C/C=C\C/C=C\CCCC(=O)O[C@H](COC(=O)CCCCCCCCCCCCCCCCC)COP(=O)([O-])OCC[N+](C)(C)C [Oxidized PC 18:0_20:4],TIMS collisional cross section,"sample type: Human plasma, ion (formula + adduct): [C46H84NO9P+HCOO] 1-",302.75 ± 1.5 Å²
same,TIMS collisional cross section,"sample type: Mouse Liver, ion (formula + adduct): [C46H84NO9P+HCOO] 1-",302.3 Å²
CCCCC/C=C\C/C=C\C/C=C\CCCCC(=O)O[C@H](COC(=O)CCCCCCCCCCCCCCC)COP(=O)([O-])OCC[N+](C)(C)C [PC 16:0_18:3@],TIMS collisional cross section,"sample type: Human plasma, ion (formula + adduct): [C42H78NO8P+HCOO] 1-",288.8 Å²
CC/C=C\C/C=C\C/C=C\CCCCCCCC(=O)O[C@H](COC(=O)CCCCCCC/C=C\CCCCCCCC)COP(=O)([O-])OCC[N+](C)(C)C [PC 18:1@_18:3],TIMS collisional cross section,"sample type: Mouse Liver, ion (formula + adduct): [C44H80NO8P+HCOO] 1-",292.7 Å²
CCCCCC/C=C\CCCCCCCC(=O)OCC(COP(=O)(O)OCCN)OC(=O)CCCCCCC/C=C\CCCCCC (stereo not drawn) [PE 16:1_16:1],TIMS collisional cross section,"sample type: Mouse Liver, ion (formula + adduct): [C37H70NO8P-H] 1-",259.3 Å²
CCCCCCCCC/C=C\CCCCCCCC(=O)O[C@H](COC(=O)CCCCCCCCCCCCCCC)COP(=O)(O)OCCN [PE 16:0_19:1],TIMS collisional cross section,"sample type: Mouse Liver, ion (formula + adduct): [C40H78NO8P-H] 1-",271.2 Å²
CC/C=C\C/C=C\CC(O)/C=C/C=C\C/C=C\C/C=C\CCC(=O)O[C@H](COC(=O)CCCCCCCCCCCCCCCCC)COP(=O)(O)OCCN (stereo partly drawn) [Oxidized PE 18:0_22:6@],TIMS collisional cross section,"sample type: Human plasma, ion (formula + adduct): [C45H78NO9P-H] 1-",287 Å²
CCCCC/C=C\C[C@H](O)/C=C/C=C\C/C=C\CCCC(=O)O[C@H](CO/C=C\CCCCCC/C=C\CCCCCCCC)COP(=O)(O)OCCN [Oxidized PE 18:1@_20:4],TIMS collisional cross section,"sample type: Human plasma, ion (formula + adduct): [C43H76NO8P-H] 1-",279.7 Å²
CCCCC/C=C\C/C=C\CCCCCCCC(=O)O[C@H](CO/C=C\CCCCCCCCCCCCCC)COP(=O)(O)OCCN [PE P- 16:0@_18:2],TIMS collisional cross section,"sample type: Human plasma, ion (formula + adduct): [C39H74NO7P-H] 1-",265.6 Å²
CCCCC/C=C\C/C=C\C/C=C\C/C=C\C/C=C\CCC(=O)O[C@H](COC(=O)CCCCCCC/C=C\C/C=C\CCCCC)COP(=O)([O-])OCC[N+](C)(C)C [PC 18:2_22:5],TIMS collisional cross section,"sample type: Mouse Liver, ion (formula + adduct): [C48H82NO8P+HCOO] 1-",299.9 Å²
CCCCCCCCCCCCCCCC(=O)OC[C@@H](O)COP(=O)(O)OC[C@@H](O)CO [LPG 16:0_0:0],TIMS collisional cross section,"sample type: Human plasma, ion (formula + adduct): [C22H45O9P-H] 1-",216.9 Å²
CCCCC/C=C\C/C=C\CCCCCCCC(=O)OC[C@H](COP(=O)(O)OCCN)OC(=O)CCCCCCC/C=C\CCCCCC [PE 18:2_16:1@],TIMS collisional cross section,"sample type: Mouse Liver, ion (formula + adduct): [C39H72NO8P-H] 1-",264 Å²
CC/C=C\C/C=C\C/C=C\C/C=C\C/C=C\C/C=C\CCC(=O)O[C@H](COC(=O)CCCCCCCCC/C=C\CCCCCCCC)COP(=O)(O)OCCN [PE 20:1_22:6],TIMS collisional cross section,"sample type: Mouse Liver, ion (formula + adduct): [C47H80NO8P-H] 1-",285.8 Å²
CCCCC/C=C\C=C/CCCCCCCCC(=O)O[C@H](COC(=O)CCCCCCCCCCCCCCCCC)COP(=O)([O-])OCC[N+](C)(C)C [PC 18:0_18:2],TIMS collisional cross section,"sample type: Human plasma, ion (formula + adduct): [C44H84NO8P+HCOO] 1-",296.5 ± 0.35 Å²
same,TIMS collisional cross section,"sample type: Mouse Liver, ion (formula + adduct): [C44H84NO8P+HCOO] 1-",295.9 ± 0.17 Å²
CCCCCCCC/C=C\CCCCCCCC(=O)O[C@H](COC(=O)CCCCCCCCCCCCCCCC)COP(=O)([O-])OCC[N+](C)(C)C [PC 17:0@_18:1],TIMS collisional cross section,"sample type: Mouse Liver, ion (formula + adduct): [C43H84NO8P+HCOO] 1-",294.5 Å²
CCCCCCCC/C=C\CCCCCCCC(=O)OC[C@@H](O)COP(=O)(O)O [LPA 18:1_0:0],TIMS collisional cross section,"sample type: Human plasma, ion (formula + adduct): [C21H41O7P-H] 1-",205 Å²
CCCCCCCCCCCCCCCC(=O)OC[C@H](COP(=O)([O-])OCC[N+](C)(C)C)OC(=O)CCCCCCCC=O [Oxidized PC 16:0_9:0@],TIMS collisional cross section,"sample type: Human plasma, ion (formula + adduct): [C33H64NO9P+HCOO] 1-",267.18 ± 0.29 Å²
same,TIMS collisional cross section,"sample type: Human plasma, ion (formula + adduct): [C33H64NO9P-CH3] 1-",253.8 Å²
same,TIMS collisional cross section,"sample type: Mouse Liver, ion (formula + adduct): [C33H64NO9P+HCOO] 1-",267.1 ± 0.42 Å²
CCCCCCCCCCCCCCCCCC(=O)OC[C@@H](O)COP(=O)(O)OC[C@H](N)C(=O)O [LPS 18:0_0:0],TIMS collisional cross section,"sample type: Mouse Liver, ion (formula + adduct): [C24H48NO9P-H] 1-",227.7 Å²
CCCCC/C=C\C/C=C\CCCCCCCC(=O)O[C@H](COC(=O)CCCCCCCCCCCCCCCC)COP(=O)([O-])OCC[N+](C)(C)C [PC 17:0_18:2],TIMS collisional cross section,"sample type: Mouse Liver, ion (formula + adduct): [C43H82NO8P+HCOO] 1-",293.3 Å²
CCCCCCCCCCCCCCCC(=O)OC[C@H](COP(=O)(O)OC[C@H](N)C(=O)O)OC(=O)CCCCCCCCCCCCC [PS 16:0_14:0@],TIMS collisional cross section,"sample type: Human plasma, ion (formula + adduct): [C36H70NO10P-H] 1-",269.6 Å²
